Data published in publication PMC4707675 (ACS infectious diseases, 2015).
≈ marks a conversion by molar mass, not a printed value. Where “and” joins values, the source holds several entries; their conditions need not be identical. Identical values can stand only once. Like-named read-outs stand apart in the source and are kept apart here.

How the values were obtained:
[1] = assay type: in vitro ADME
[2] = system: intracellular Mtb growth in macrophages (THP-1 cells); assay: Intracellular assay of Mtb clearance in THP-1 cells; assay type: cell-based, Mycobacterium tuberculosis; conditions: Mtb in THP-1 cells
Mtb DHFR [3] = biological target: T1, Mtb DHFR (Mycobacterium tuberculosis, UniProt P9WNX1); assay type: biochemical; conditions: read-out: Enzyme IC50 Mtb; purified Mtb DHFR
T1 sequence (P9WNX1 whole entry): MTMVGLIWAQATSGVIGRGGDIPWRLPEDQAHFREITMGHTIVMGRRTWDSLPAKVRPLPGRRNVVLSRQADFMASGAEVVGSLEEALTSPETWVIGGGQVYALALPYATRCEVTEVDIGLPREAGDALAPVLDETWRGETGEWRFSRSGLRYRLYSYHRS

Mtb strain H37Rv [4] = assay type: cell-based, Mycobacterium tuberculosis
Mtb strain H37Rv [5] = conditions: cited from earlier work; for activity against live Mtb: result in words; for MIC90 wt: wild-type Mtb, ref Nixon et al.[15]
Mtb DHFR [6] = biological target: T1, Mtb DHFR; conditions: cited from earlier work; for inhibition of the Mtb DHFR enzyme: result in words
[7] = in vivo; cited from earlier work
human DHFR = biological target: T2, human DHFR (Homo sapiens, UniProt P00374); assay: Biochemical assay of human DHFR; conditions: read-out: Enzyme IC50 Human; recombinant human DHFR
T2 sequence (P00374 1-187): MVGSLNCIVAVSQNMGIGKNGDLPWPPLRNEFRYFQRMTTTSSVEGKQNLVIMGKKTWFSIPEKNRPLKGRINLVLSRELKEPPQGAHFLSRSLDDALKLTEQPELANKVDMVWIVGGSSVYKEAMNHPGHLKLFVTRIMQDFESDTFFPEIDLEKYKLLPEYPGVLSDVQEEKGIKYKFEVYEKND

SMILES	Tox50 HepG2 (HepG2) [µM]	in vitro clearance in mouse microsomes [1] [mg/mL·g]	MIC90 wt (Mtb strain H37Rv [4])	activity against live Mtb (Mtb strain H37Rv [5])	inhibition of the Mtb DHFR enzyme (Mtb DHFR [6])	also measured
N#Cc1ccc(Cn2ccc3c4c(N)nc(N)nc4ccc32)cc1 [PQD-1]	10	<0.5	0.5 µM and 0.50 µM	–	–	intracell MIC90 [2]: 0.7 µM; IC50 (Mtb DHFR [3]): 10.1 nM
COc1cc(NCc2ccc3nc(N)nc(N)c3c2C)cc(OC)c1OC [Trimetrexate]	–	–	–	poor or no activity	strong inhibition	MIC90 wt (Mtb strain H37Rv [5]): 6.3 µM (≈ 2.33 µg/mL); MIC90 wt (Mtb strain H37Rv [5]; listed as trimetrexate): 6.25 µM (≈ 2.31 µg/mL)
CC1(C)N=C(N)N=C(N)N1OCCCOc1cc(Cl)c(Cl)cc1Cl [WR99210]	40	<0.5	1 to 2 µM	–	–	cell health: membrane permeability (HepG2 human hepatocytes): 19 µM; cell health: mitochondrial potential (HepG2 human hepatocytes): 25 µM; cell health: nuclear morphology (HepG2 human hepatocytes): 10 µM; IC50 (Mtb DHFR [6]; read-out: Enzyme IC50 Mtb, ref Nixon et al.[15]): 14 nM; toxicity in humans [7]: acute gastrointestinal toxicity; IC50 (human DHFR): 9 nM
CN(Cc1cnc2nc(N)nc(N)c2n1)c1ccc(C(=O)N[C@@H](CCC(=O)O)C(=O)O)cc1 [methotrexate]	–	–	–	poor or no activity	–	–
CCc1nc(N)nc(N)c1-c1ccc(Cl)cc1 [pyrimethamine]	–	–	–	poor or no activity	strong inhibition	–
